# Assay results reported in the supplement of paper PMC13380429.
# How the values were obtained:
# Conditions in all cases: 72 h
# [1] = tested on: Calu-3; assay: drug sensitivity score (DSS) for viability; higher = more toxic; extreme values may be limits of the assay
# [2] = tested on: U2OS; assay: as above
# [3] = tested on: HepG2; assay: as above
# [4] = tested on: Vero E6; assay: as above
# [5] = tested on: Caco-2; assay: as above
# [6] = tested on: Calu-3; assay: cell viability relative to DMSO; higher = less toxic
# [7] = tested on: U2OS; assay: as above
# [8] = tested on: HepG2; assay: as above
# [9] = tested on: Vero E6; assay: as above
# [10] = tested on: Caco-2; assay: as above
# [11] = tested on: Calu-3; assay: relative viability EC50 (midpoint between 100% and the lowest measured viability); higher = less toxic
# [12] = tested on: U2OS; assay: as above
# [13] = tested on: HepG2; assay: as above
# [14] = tested on: Vero E6; assay: as above
# [15] = tested on: Caco-2; assay: as above
Structure (SMILES),drug sensitivity score [1],drug sensitivity score [2],drug sensitivity score [3],drug sensitivity score [4],drug sensitivity score [5],cell viability ([6]; 1 nM) [%],cell viability ([6]; 10 nM) [%],cell viability ([6]; 100 nM) [%],cell viability ([6]; 1000 nM) [%],cell viability ([6]; 10000 nM) [%],cell viability ([7]; 1 nM) [%],cell viability ([7]; 10 nM) [%],cell viability ([7]; 100 nM) [%],cell viability ([7]; 1000 nM) [%],cell viability ([7]; 10000 nM) [%],cell viability ([8]; 1 nM) [%],cell viability ([8]; 10 nM) [%],cell viability ([8]; 100 nM) [%],cell viability ([8]; 1000 nM) [%],cell viability ([8]; 10000 nM) [%],cell viability ([9]; 1 nM) [%],cell viability ([9]; 10 nM) [%],cell viability ([9]; 100 nM) [%],cell viability ([9]; 1000 nM) [%],cell viability ([9]; 10000 nM) [%],cell viability ([10]; 1 nM) [%],cell viability ([10]; 10 nM) [%],cell viability ([10]; 100 nM) [%],cell viability ([10]; 1000 nM) [%],cell viability ([10]; 10000 nM) [%],relative viability EC50 [11] [µM],relative viability EC50 [12] [µM],relative viability EC50 [13] [µM],relative viability EC50 [14] [µM],relative viability EC50 [15] [µM]
CCCC(=O)O [sodium-butyrate],0,0,0,0,0,103,95.8,96.2,97.7,102,104,102,98.6,106,96.5,109,91.8,102,91.2,99.1,109,101,102,99.4,100,104,95.8,100,99.9,98.9,> 10,> 10,> 10,> 10,> 10
CC(C)(C)CCN1C[C@@H]2[C@@H](CNC(=O)c3cc(Cl)cc(Cl)c3)[C@@H]2C1 [ML218],0,0,0,0,0,108,109,104,99.6,90.7,99.7,97.9,96.8,102,93.1,95.2,108,96.3,96.9,92.7,101,101,103,100,91.8,104,97.4,97.4,92.8,88.6,> 10,> 10,> 10,> 10,> 10
CCn1cc(C(=O)O)c(=O)c2ccc(C)nc21 [nalidixic-acid],0,0,0,0,0,96.8,89,100,93,102,100,95.8,100,98.3,104,106,108,90,102,95.6,113,107,104,101,89.4,96.3,94.4,93.2,99.9,96.8,> 10,> 10,> 10,> 10,> 10
CC(C)[C@@]1(NC(=O)[C@@H]2C[C@@H]3c4cccc5[nH]cc(c45)C[C@H]3N(C)C2)O[C@@]2(O)[C@@H]3CCCN3C(=O)[C@H](Cc3ccccc3)N2C1=O [dihydroergocristine],0,0,0.1,0,0,92.6,97.5,99,93.3,94.9,96.3,100,99.2,98.2,96.4,103,95.1,95.8,100,86.4,102,100,102,99,99.5,105,100,89.3,102,91.7,> 10,> 10,> 10,> 10,> 10
NCCC(O)(P(=O)(O)O)P(=O)(O)O [pamidronate],0,0,0,0,0,92.7,111,100,98.9,93.8,98.7,101,95.6,101,99,106,105,97.5,108,106,100,94.8,96.2,97.9,101,87.2,104,106,96,97.2,> 10,> 10,> 10,> 10,> 10
CC(CN(C)C)C(C)(O)Cc1ccc(Cl)cc1 (stereo not given) [clobutinol],0,0,0.1,0.1,0,98.7,106,106,104,98.1,97.3,97.4,97.7,96.5,96.9,111,95.5,105,97.6,88.4,101,98.6,102,89.6,93.2,99.1,118,100,108,97.4,> 10,> 10,> 10,> 10,> 10
[N-]=[N+]=CC(=O)CC[C@H](N)C(=O)O [6-diazo-5-oxo-L-norleucine],0,0,0,0,0,102,90.6,96.4,95.2,98.1,104,102,104,98.3,104,97,105,98.8,97.2,112,94.2,95.8,86.8,95.6,103,95.4,90,97.8,95.8,92.7,> 10,> 10,> 10,> 10,> 10
CC(C)(C)NCC(O)COc1cc(Cl)ccc1Cl (stereo not given) [cloranolol],0,0,0,0,0,95,88.1,76.5,89.9,92.3,102,94.8,103,97.1,106,90.7,96.2,94.6,94.8,88.7,106,98.8,100,95.5,90,85.6,89.4,106,112,88.8,> 10,> 10,> 10,> 10,> 10
O=S1(=O)c2cccc3cccc(c23)N1CCCN1CCN(c2ccc(F)cc2)CC1 [fananserin],0,0,0,0,0,108,89.5,94.2,111,104,101,102,100,103,99.3,96.4,106,107,94,95.4,96.8,96.9,98.1,91.8,94.6,105,102,100,100,96.7,> 10,> 10,> 10,> 10,> 10
CNC(=O)c1cccc(-c2ccc3c(N4CCOC[C@@H]4C)nc(N4CCOC[C@@H]4C)nc3n2)c1 [AZD2014],16.1,8.5,13,7.5,13.3,89.4,87.5,74.3,27.7,22.9,95.8,94.9,96.7,66.7,19.4,94,95.4,86.4,39,22,94.7,99.4,85.4,70.1,37.2,106,98.5,83.8,38.8,30.6,0.154,1.2,0.348,0.762,0.235
C=C1/C(=C\C=C2/CCC[C@]3(C)[C@@H]([C@H](C)/C=C/[C@H](C)C(C)(C)O)CC[C@@H]23)C[C@@H](O)C[C@@H]1O [ercalcitriol],0,0,0.1,0,0,106,99.2,101,99,100,104,99.7,99.4,95.7,91.5,104,107,104,104,84.7,99,99.6,88.5,98.1,94.9,97.7,110,106,96.4,94.6,> 10,> 10,> 10,> 10,> 10
CC(C)C[C@@H]1NC(=O)[C@@H](C(C)C)NC(=O)[C@@H]2CCCN2C(=O)[C@@H](CC(=O)O)NC(=O)[C@@H](Cc2c[nH]c3ccccc23)NC1=O [BQ-123],0,0,0,0,0,93.7,94.5,95.8,90.6,100,99.7,96,101,95,101,95.4,100,98,110,108,96.2,102,92.2,99.7,104,96.4,93.2,103,91.4,109,> 10,> 10,> 10,> 10,> 10
NC(=O)c1ncn([C@@H]2O[C@H](CO)[C@@H](O)[C@H]2O)n1 [ribavirin],0.3,0,0,0,0.2,104,108,111,88.6,92.9,92,93.8,99.5,95.9,113,95.7,104,99.8,121,86.7,101,101,98.5,104,104,109,97.6,108,113,82.9,> 10,> 10,> 10,> 10,> 10
